Assays:
[1] = in vivo; assay type: in vivo; conditions: 14-day study
[2] = clinical; conditions: human, in vivo, po
Procedure: A±5 minutes window permitted till 4 hours PK sample collection. A±10 minutes window permitted for subsequent PK sample collection. Days 3, 8, 15, and 22 of Cycle 1:30 (±10) minutes Predose only. […] A #5 minutes window permitted till 4 hours PK sample collection. A #10 minutes window permitted for subsequent PK sample collection. Days 8, 15, and 22 of Cycle 2:30 (±10) minutes Predose only. Cycle 3 onwards: Predose samples on Day 1.
Pharmacokinetic analysis was performed using non-compartmental analysis. The actual elapsed time from dose was used in the final PK parameter calculations. Plasma concentrations and PK parameters for the compound of Formula I were listed and summarized by dose cohort using descriptive statistics (n, mean, standard deviation, minimum, median, and maximum). Geometric mean and geometric coefficient of variation were calculated for PK parameters. Additionally, mean concentration profiles by dose cohort and cycle were illustrated. Dose proportionality of Cmax and AUC(0-24) was assessed graphically for Cycle 1 and Cycle 2. Dose proportionality was statistically evaluated using the power model approach, whenever the number of patients was at least 3 for a given cohort. Time to steady-state (Ctrough) was evaluated graphically. Differences among dose levels in CL/F and V/F, and dose-normalized Cmax and AUC(0-24) were explored using an analysis of variance.
The PK parameters for the study were summarized by treatment using descriptive (N, n, mean, standard deviation [SD], coefficient of variation [CV] % minimum, median, maximum, geometric mean and CV %) statistics, except for Tmax. For Tmax, the number of subjects, minimum, median, and maximum are reported.

[3] = Single- and repeat-dose studies in preclinical models, oral route
[4] = system: cell lines expressing Ph+ wild-type and mutant forms of BCR-ABL1; experiment: Growth inhibition of cell lines; assay type: cell-based
[5] = system: Ph+ CML (CP CML, AP CML, and BP CML); experiment: Phase 2 open-label study (Part C) in CML resistant or intolerant to ≥3 prior TKIs including ponatinib: disease response; assay type: in vivo, human
Procedure: A multicenter open-label study in subjects with CML (CP CML, AP CML, and BP CML) who documented resistance or intolerance to more than or equal to 3 prior TKIs one of which included ponatinib was performed. The subjects for this were grouped as follows: • a) Cohort A—Ph+ CML: Chronic phase (CP CML) cohort • b) Cohort B—Ph+ CML: Accelerated phase (AP) cohort • c) Cohort C—Ph+ CML: Blast phase (BP) cohort.
The primary objective of this study was to evaluate the efficacy of the compound of Formula I in CP CML patients by cytogenetic outcomes and in AP CML and BP CML patients by hematologic outcomes. Secondary objectives included evaluation of anti-leukemic efficacy of compound of Formula I by molecular outcomes, hematological outcomes in CP CML patients, and by cytogenetic outcomes in AP CML and BP CML; time to first hematologic response; duration of response; progression-free survival (PFS) and overall survival (OS), population PK of the compound of Formula I and safety.
The selection criteria for subjects (Both inclusion and exclusion) were the same as those set forth above study, except for the following: Subjects had to be previously treated with ≥3 prior TKIs including the 3rd generation TKI, ponatinib; subjects with Ph+ ALL were not included in this study; subjects with presence of T3151 mutations were excluded in the study. Limited to no response on a TKI therapy is reported in CML patients post-ponatinib treatment (Leuk Lymphoma 2018 June; 59 (6): 1312-1322).
Patients were followed for survival by telephone survey.
The Compound of Formula I with 174 mg as capsules was administered orally once daily continuously in 4-week cycles. Patients self-administered the compound of Formula I on an outpatient basis at approximately the same time each morning after overnight fasting or fasting ˜2 hours before and after dosing.
Bone marrow aspirate samples were sent for review of cytogenetics by conventional Giemsa staining method (karyotyping). Fluorescence in situ hybridization (FISH) was performed on bone marrow aspirates only in cases of subjects who had achieved complete cytogenetic response (confirmed by karyotyping) with the studied drug and who had minimum residual disease. FISH was also used if a sufficient sample was not available for conducting the Giemsa staining method (karyotyping).
Standard cytogenetic methods were used to determine the presence of the Ph+ and its presence (percentage) in the bone marrow. At least 20 cells in metaphase were evaluated for karyotyping. Bone marrow cytogenetics was scheduled to be performed within 7 days of the scheduled date irrespective of missed doses or disease or dose-associated AEs.
Molecular response monitoring (MMR) using PCR for BCR-ABL copy number was performed on the collected blood samples and was assessed using the international scale (IS).
The hematologic response was evaluated by peripheral blood utilizing local laboratory results.

Cc1ccc(C(=O)NNC(=O)c2c(C)cccc2Cl)cc1C#Cc1cnc2ccccc2c1 [compound of Formula I, N′-(2-chloro-6-methylbenzoyl)-4-methyl-3-[2-(3-quinolyl)ethynyl]-benzohydrazide]
dose up to which no mortality or severe clinical signs were observed [1]: ≤ 625 mg/kg/day
NOAEL at 14 days ([1]; dog, in vivo): 83 mg/kg/day
Tmax [2]: 1.5 to 2.5 h
AUC(0-t) ([2]; 204 mg): 27.5 µg·h/mL
Cmax ([2]; 204 mg): 3.31 µg/mL
adverse events ([3]; multiple efficacious doses): no specific adverse events
systemic exposure ([3]; oral route, daily dosing): systemic bioavailability
AUC ([3]; plasma, oral): 13.3 µg·h/mL
effect on cell lines [4]: growth inhibition
Best Cytogenetic Response: Complete Cytogenetic Response ([5]; 174 mg (N = 7)): 1 (14.3%)
Best Cytogenetic Response: Major Cytogenetic Response ([5]; 174 mg (N = 7)): 2 (28.6%)
Best Cytogenetic Response: Minimal Cytogenetic Response ([5]; 174 mg (N = 7)): 0
Best Cytogenetic Response: Minor Cytogenetic Response ([5]; 174 mg (N = 7)): 0
Best Cytogenetic Response: No Response ([5]; 174 mg (N = 7)): 2 (28.6%)
Best Cytogenetic Response: Partial Cytogenetic Response ([5]; 174 mg (N = 7)): 1 (14.3%)
Best Hematologic Response: Complete Hematologic Response ([5]; 174 mg (N = 7)): 6 (85.7%)
Best Hematologic Response: Major Hematologic Response ([5]; 174 mg (N = 7)): 6 (85.7%)
Best Hematologic Response: No Evidence of Leukemia ([5]; 174 mg (N = 7)): 0
Best Hematologic Response: No Response ([5]; 174 mg (N = 7)): 1 (14.3%)
Best Molecular Response: Complete Response ([5]; 174 mg (N = 7)): 0
Best Molecular Response: Major Response ([5]; 174 mg (N = 7)): 1 (14.3%)
Best Molecular Response: No Response ([5]; 174 mg (N = 7)): 4 (57.1%)
Major molecular response (MMR) as best response ([5]; 1 of the 7 enrolled subjects, 174 mg): 14.3%
Complete hematological response (CHR) as best response ([5]; 2 of the 2 AP-CML enrolled subjects): 100%
Major cytogenetic response (MCyR) as best response ([5]; 2 of the 7 enrolled subjects, 174 mg): 28.6%
major hematological response (MaHR) as best response ([5]; 6 of the 7 enrolled subjects, 174 mg): 85.7%
Major molecular response (MMR) as best response ([5]; 6 of the 13 enrolled CP-CML subjects): 46.2%
achieved MaHR in the study ([5]; 7 enrolled subjects, 174 mg): 5 subjects
came into the study in MaHR and maintained it ([5]; 7 enrolled subjects, 174 mg): 1 subject
Major cytogenetic response (MCyR) as best response ([5]; 11 CP-CML enrolled subjects): 84.6%
Complete hematological response (CHR) as best response ([5]; 13 of the 15 CP-CML enrolled subjects): 86.7%
achieved CHR in study ([5]; CP-CML, of 13): 9 subjects
came into the study in CHR and maintained it ([5]; CP-CML, of 13): 4 subjects
developed CCyR ([5]; CP-CML, of the 13 subjects): 61.5%

Source: patent publication US20260069584A1, “METHODS OF TREATING CHRONIC MYELOID LEUKEMIA USING THE TYROSINE KINASE INHIBITOR VODOBATINIB” (Sun Pharma Advanced Research Company Ltd., priority 2022, published 2026)
